Data reported in ChEMBL document CHEMBL3507680, “University of Dundee, Gates Library screen for HepG2 cell viability”.

Test: Human HepG2 cell viability assay in 384 well format
Type: toxicity, cell-based
Parameters: dose 125 nL, time 70.5 hour; cytotoxicity at 70.5 h: concentration not given beside the values
Conditions: HepG2 cells, read-out: Inhibition

Compared with `CC1CN(C)CCN1C(=O)NCCCn1ccnc1` (stereo unspecified), `CC1CN(C)c2ccccc2CN1C(=O)c1cc(C#N)cn1C` (stereo unspecified) is higher in cytotoxicity at 70.5 h: -1.11% for the first, 14.8% for the second.

Going from `O=C(NC1(c2nnn(Cc3ccncc3)n2)CCCC1)c1ccccc1` to `O=C1NC2(CCN(Cc3ccsc3)CC2)CC1c1ccncc1` (stereo unspecified), the cytotoxicity at 70.5 h falls from -1.85% to -9.73%.

Compared with `CCC(CC)(CNC(=O)OC(C)(C)C)NC(=O)C1CCCO1` (stereo unspecified), `Cc1cc(C(=O)N2CCO[C@H]3[C@H](OCCN(C)C)CC[C@@H]32)c(C)[nH]1` is lower in cytotoxicity at 70.5 h: -3.25% for the first, -9.02% for the second.

Going from `CCN(Cc1nc(Cc2ccccc2)no1)C1CC1` to `CN(C(=O)c1ccon1)[C@@H]1CCC[C@@H](Oc2ccccc2)[C@@H]1O`, the cytotoxicity at 70.5 h rises from -4.11% to -1.37%.

Going from `CCc1n[nH]c(C2CN(C(=O)c3ccnc(N(C)C)c3)CCO2)n1` (stereo unspecified) to `CCc1ccc(C(=O)N2CC[C@](C)(O)[C@H](C)C2)[nH]1`, the cytotoxicity at 70.5 h falls from 20.1% to -7.19%.

Going from `COCC1CN(Cc2ccccn2)Cc2nn(C)cc21` (stereo unspecified) to `NC(=O)Cn1ccnc1C1CCCN(Cc2cccc(Cl)c2F)C1` (stereo unspecified), the cytotoxicity at 70.5 h falls from -7.74% to -11.7%.

Going from `CNS(=O)(=O)c1cc(C(=O)NC2COc3ccccc32)cc(C)c1C` (stereo unspecified) to `CCn1nc(C)c(CNC(=O)c2nnc3ccccc3n2)c1C`, the cytotoxicity at 70.5 h rises from -13.5% to 0.73%.

Compared with `CC(C)CN(Cc1ccc(O)c(C(=O)O)c1)Cc1cnn(C)c1`, `CC(C)CC(NC(=O)c1ccco1)c1nc2cccnc2n1C` (stereo unspecified) is lower in cytotoxicity at 70.5 h: -1.34% for the first, -1.92% for the second.

First: CCn1ccnc1CN1CCCC1C(=O)Nc1nccs1 (stereo unspecified)
Second: CNCC(=O)N1CCCC(c2nccnc2Oc2cccc(F)c2)C1 (stereo unspecified)
The cytotoxicity at 70.5 h of the first is higher: -5.23% for the first, -10.3% for the second.

Going from `CC(=O)NCCCSC1CCN(c2c(F)cccc2F)C1=O` (stereo unspecified) to `Cc1ccccc1NC(=O)NCCn1nc(C(F)(F)F)n(C)c1=O`, the cytotoxicity at 70.5 h falls from 22.9% to -2.02%.

Compared with `Cc1ccc(C(C(=O)NCCc2nc(C)cc(=O)[nH]2)N(C)C)cc1` (stereo unspecified), `CCOCCn1c(=O)[nH]c2cc(C(=O)N(C)Cc3nc(C)c[nH]3)ccc21` is lower in cytotoxicity at 70.5 h: 7.05% for the first, -5.85% for the second.

Compared with `Cc1csc(N2CCN(Cc3nnsc3Cl)CC2C)n1` (stereo unspecified), `Cc1nc(C)c(C(=O)N2CCc3nc4c(C)csc4c(=O)n3CC2)s1` is higher in cytotoxicity at 70.5 h: -16% for the first, 0.911% for the second.

Going from `CC(C)C(NC(=O)Nc1ccc(F)cc1)C(=O)N(C)C` (stereo unspecified) to `COc1ccc(-c2noc([C@@H](C)NS(=O)(=O)CC(C)C)c2C(=O)O)cc1`, the cytotoxicity at 70.5 h falls from 3.02% to -10.7%.

Compared with `O=S(=O)(NCC1CCN(c2cnccn2)CC1)c1cccs1`, `CN(C1CCN(c2ccccn2)CC1)S(=O)(=O)c1cccs1` is lower in cytotoxicity at 70.5 h: 5.13% for the first, -8.7% for the second.

Compared with `COc1ccc(-c2nc(C)cc(SCC(N)=O)n2)cc1`, `CCN1CCCC1CNC(=O)Cc1c(C)n[nH]c1-c1ccc(OC)cc1` (stereo unspecified) is higher in cytotoxicity at 70.5 h: -2.23% for the first, 24.8% for the second.

Compared with `CC(Cc1ccco1)NS(=O)(=O)N1CCCCCC1` (stereo unspecified), `O=C(CCc1ccccn1)N1CCN(C(=O)CC2CCCCC2)CC1` is higher in cytotoxicity at 70.5 h: -8.2% for the first, -4.45% for the second.

Compared with `COCC(=O)NC1CC2(CCN(CCN(C)C)CC2)c2ccccc21` (stereo unspecified), `CN1CCC(N(C)C(=O)c2cnn(-c3ccccc3Br)c2N)CC1` is higher in cytotoxicity at 70.5 h: -2.09% for the first, 0.0189% for the second.

First: O=C(NCc1ccccc1)N1CCc2ncnc(NC3CC3)c2CC1
Second: O=C(C1CC1)N1CCC(Nc2nc(O)cc(-c3ccsc3)n2)CC1
The cytotoxicity at 70.5 h of the first is higher: -3.8% for the first, -8.33% for the second.

First: CC(=O)N1N=C(c2cccs2)OC1C(=O)Nc1ccccc1 (stereo unspecified)
Second: CC(C)NC(=O)[C@@H]1C[C@@H](N)CN1C(=O)CCSCc1ccccc1
The cytotoxicity at 70.5 h of the first is lower: -8.33% for the first, 1.3% for the second.

First: CC(C)N(C)C(=O)C1=NOC2(CCN(C(=O)c3ccccn3)C2)C1 (stereo unspecified)
Second: Cn1cc(CN2CCCC3(CCN(C(=O)c4ccoc4)C3)C2)cn1 (stereo unspecified)
The cytotoxicity at 70.5 h of the first is higher: -9.35% for the first, -11% for the second.

Going from `O=C(C1=CCCC1)N1C[C@@H]2COC[C@]2(COCC2CC2)C1` to `CCN(CC1CCOC1)C(=O)NCc1nnc2n1CCC2` (stereo unspecified), the cytotoxicity at 70.5 h rises from -6.62% to -5.15%.

Going from `CCn1cnnc1CNC(=O)N(C)Cc1ccc(Cl)cc1Cl` to `COc1ccc(CC(=O)N(C)c2cccnc2N(C)C)c(Cl)c1`, the cytotoxicity at 70.5 h falls from 3.74% to -1.15%.

First: CCc1nc(C2CCCN2C(=O)c2ncoc2CC)no1 (stereo unspecified)
Second: Cc1noc(-c2ccc(N3CCCC(C(=O)O)C3)nc2)n1 (stereo unspecified)
The cytotoxicity at 70.5 h of the first is lower: -5.48% for the first, -3.67% for the second.

Going from `CCCN1CCc2[nH]nc(C(=O)N3CCNC(=O)C3)c2C1` to `Cc1n[nH]c(=O)c2c(NC(=O)CN3CCOC(C)C3)oc(C)c12` (stereo unspecified), the cytotoxicity at 70.5 h rises from -2.77% to 12.5%.

First: CCN1CC2(CC1=O)CN(C(C)=O)CCN(C(=O)NC(C)C)C2 (stereo unspecified)
Second: COCC(C)NC(=O)N1CCN(S(C)(=O)=O)CC1 (stereo unspecified)
The cytotoxicity at 70.5 h of the first is lower: -8.93% for the first, -2.46% for the second.

First: Cc1cnn(CC(C)NCc2nc(-c3cccnc3)no2)c1 (stereo unspecified)
Second: CCCc1nc2c(c(C)c(C)n2Cc2ccncc2)c(N)c1CC
The cytotoxicity at 70.5 h of the first is lower: 3.38% for the first, 53.6% for the second.

Compared with `c1ccc(CN2CCOCC3(CCN(C4CCOCC4)C3)C2)cc1` (stereo unspecified), `O=C1CO[C@H]2CN(C3CCOCC3)C[C@H]2N1Cc1ccc(F)cc1` is higher in cytotoxicity at 70.5 h: -2.29% for the first, 16.1% for the second.

Compared with `Cc1cc(C)nc(CN(C)c2nc(C3CCCC3)nc3c2cnn3C)c1`, `Cc1cc(C)c2c(c1)C(NC(=O)CSc1nnc[nH]1)CCO2` (stereo unspecified) is higher in cytotoxicity at 70.5 h: -9.74% for the first, 10.8% for the second.
